These results are taken from patent publication US9487559B2, “Compositions comprising multivalent synthetic ligands of surface nucleolin and glycosaminoglycans” (ELRO PHARMA SARL, priority 2010, dated 2016).

“Also recorded” adds a separate entry of the source.

For test [1], the system named is PANC1 cells. Put plainly: PANC1 proliferation, gemcitabine alone or combined with N6L, Cs-C or nanoparticles, MTT assay. Format: cell-based, human. Particulars: gemcitabine 1 nM to 50 nM, every day for 4 days, 5% FBS. How it is done: FIG. 22. Nanoparticles, but not N6L, induce the activity of gemcitabine. Similar number of PANC1 cells was treated with increasing concentrations of gemcitabine alone or in combination with N6L, Cs-C, or nanoparticles composed by Cs-C.

Test [2] relates to PANC-1 (Human pancreatic carcinoma) cells. In words: Anchorage-dependent proliferation of PANC-1 cells, MTT assay. Particulars: whatever the concentration used (0.1-1000 μg/ml). The class given is cell-based. In general terms: Tetrazolium assays rely on reduction of a dye to a coloured formazan, in cell work by metabolically active cells.
In test [3] the test system is chicken embryo chorioallantoic membrane. In words: In vivo angiogenesis, chicken embryo chorioallantoic membrane (CAM) assay. Particulars: heparin or CS-C applied alone on the CAM, 48 h. As to the method:
FIG. 21. […] An 1 cm2 area of chicken embryo CAM, restricted by a silicon ring, was incubated with 20 μM N6L or nanoparticles composed by 20 μM N6L and […] heparin or Cs-C. 48 h later, total vessels length was quantified. We observed that N6L had no effect on the in vivo angiogenesis, in contrast to the heparin or Cs-C composed nanoparticles that inhibited the development of new blood vessels (50% and 70%, respectively). Results are mean values±SD from at least 3 independent experiments.
To analyse the effects of N6L pre-incubated with sulfated glycoaminoglycans on in vivo angiogenesis using chicken embryo chorioallantoic membrane assay.
Leghorn fertilized eggs were incubated for 4 days at 37° C. A window was then opened on the eggshell, exposing the CAM. The window was covered with sterile tape, and the eggs were returned to the incubator. On day 9 of embryo development, […] of distilled water as a control or containing either 20 μM N6L, […] or 10 μg/ml CS-C alone or 20 μM N6L pre-incubated with either 10 μg/ml heparin or 10 μg/ml CS-C inside a silicone ring to restricted the area which is 1 cm^2. […] Photographs were taken and the total length of the vessels was quantified using PC image-analysis software (Scion Corporation, USA). […]

Test [4] relates to U87-MG (Human glioblastoma-astrocytoma) cells. In words: Anchorage-dependent proliferation of U87-MG cells, MTT assay. Format: cell-based. Particulars: whatever the concentration used (0.1-1000 μg/ml).

`Nc1ccn([C@@H]2O[C@H](CO)[C@@H](O)C2(F)F)c(=O)n1` [gemcitabine]: the “inhibition of PANC1 proliferation by gemcitabine alone” value in test [1] is listed as “slight inhibition; also recorded: slightly inhibited”.
As to heparin, the “effect of GAG alone on PANC-1 proliferation” value in test [2] is “no effect”. The “effect of GAG alone on in vivo angiogenesis” value in test [3] is listed as “no effect”. In addition, the “effect of GAG alone on U87-MG proliferation” value in test [4] is listed as “no effect”.
As for chondroitin-6-sulfate [Cs-C], in test [2], the “effect of GAG alone on PANC-1 proliferation” value is “no effect”. Further, the “effect of GAG alone on in vivo angiogenesis” value in test [3] is recorded as “no effect”. In test [4], the “effect of GAG alone on U87-MG proliferation” value is listed as “no effect”.
